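Values below derive from 48-hour exposures of cells grown in 96-well plates, with endpoints linearly interpolated between the two concentrations bracketing the appropriate inhibition level. Here, GI50 denotes the concentration required for 50% inhibition of growth. TGI: total growth inhibition.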
Assays:
Assay in all cases: NCI anticancer screen, dose series, 48 h; in the data active means GI50 below about 0.43 µM; inactive means the rest
786-0 renal = test system: 786-0 renal
A498 renal = test system: A498 renal
A549 NSCLC = test system: A549 NSCLC
ACHN renal = test system: ACHN renal
BT-549 breast = test system: BT-549 breast
CAKI-1 renal = test system: CAKI-1 renal
CCRF-CEM leukemia = test system: CCRF-CEM leukemia
COLO 205 colon = test system: COLO 205 colon
DU-145 prostate = test system: DU-145 prostate
EKVX NSCLC = test system: EKVX NSCLC
HCC-2998 colon = test system: HCC-2998 colon
HCT-116 colon = test system: HCT-116 colon
HCT-15 colon = test system: HCT-15 colon
HOP-92 NSCLC = test system: HOP-92 NSCLC
HS 578T breast = test system: HS 578T breast
HT29 colon = test system: HT29 colon
IGROV1 ovarian = test system: IGROV1 ovarian
K-562 leukemia = test system: K-562 leukemia
KM12 colon = test system: KM12 colon
LOX IMVI melanoma = test system: LOX IMVI melanoma
M14 melanoma = test system: M14 melanoma
MALME-3M melanoma = test system: MALME-3M melanoma
MCF7 breast = test system: MCF7 breast
MDA-MB-231 breast = test system: MDA-MB-231 breast
MDA-MB-435 = test system: MDA-MB-435
NCI-H23 lung = test system: NCI-H23 lung
NCI-H460 lung = test system: NCI-H460 lung
NCI/ADR-RES ovarian = test system: NCI/ADR-RES ovarian
OVCAR-3 ovarian = test system: OVCAR-3 ovarian
OVCAR-4 ovarian = test system: OVCAR-4 ovarian
OVCAR-5 ovarian = test system: OVCAR-5 ovarian
OVCAR-8 ovarian = test system: OVCAR-8 ovarian
PC-3 prostate = test system: PC-3 prostate
RXF 393 renal = test system: RXF 393 renal
SF-268 CNS = test system: SF-268 CNS
SF-295 CNS = test system: SF-295 CNS
SF-539 CNS = test system: SF-539 CNS
SK-MEL-2 melanoma = test system: SK-MEL-2 melanoma
SK-MEL-28 melanoma = test system: SK-MEL-28 melanoma
SK-OV-3 ovarian = test system: SK-OV-3 ovarian
SN12C renal = test system: SN12C renal
SNB-19 CNS = test system: SNB-19 CNS
SNB-75 CNS = test system: SNB-75 CNS
SW-620 colon = test system: SW-620 colon
TK-10 renal = test system: TK-10 renal
U251 CNS = test system: U251 CNS
UACC-257 melanoma = test system: UACC-257 melanoma
UACC-62 melanoma = test system: UACC-62 melanoma
UO-31 renal = test system: UO-31 renal
HL-60(TB) leukemia = test system: HL-60(TB) leukemia
HOP-62 NSCLC = test system: HOP-62 NSCLC
MOLT-4 leukemia = test system: MOLT-4 leukemia
NCI-H226 lung = test system: NCI-H226 lung
NCI-H522 lung = test system: NCI-H522 lung
RPMI-8226 leukemia = test system: RPMI-8226 leukemia
SK-MEL-5 melanoma = test system: SK-MEL-5 melanoma
SR leukemia = test system: SR leukemia
T-47D breast = test system: T-47D breast

C=C(C)[C@@H]1CC[C@]2(C)[C@H](C=CC3=C4C[C@@](C)(CO)CC[C@]4(C)CC[C@]32C)[C@@]1(C)CCCN
4070 nM: TGI (HS 578T breast)
5560 nM: TGI (CCRF-CEM leukemia)
2650 nM: TGI (UO-31 renal)
3230 nM: TGI (COLO 205 colon)
3440 nM: TGI (786-0 renal)
3150 nM: TGI (DU-145 prostate) | TGI (SN12C renal)
3200 nM: TGI (MDA-MB-435)
2970 nM: TGI (SNB-75 CNS)
2850 nM: TGI (CAKI-1 renal) | TGI (OVCAR-3 ovarian)
3580 nM: TGI (SK-MEL-2 melanoma)
3280 nM: TGI (HT29 colon) | TGI (PC-3 prostate)
3660 nM: TGI (UACC-257 melanoma)
3090 nM: TGI (OVCAR-4 ovarian) | TGI (OVCAR-5 ovarian)
3360 nM: TGI (TK-10 renal)
3270 nM: TGI (MDA-MB-231 breast)
3340 nM: TGI (M14 melanoma)
2910 nM: TGI (MALME-3M melanoma)
3180 nM: TGI (A549 NSCLC)
3400 nM: TGI (MCF7 breast)
2950 nM: TGI (IGROV1 ovarian)
3170 nM: TGI (SK-OV-3 ovarian) | TGI (SNB-19 CNS) | TGI (UACC-62 melanoma)
2920 nM: TGI (HCT-15 colon)
3040 nM: TGI (SW-620 colon)
3020 nM: TGI (KM12 colon)
5040 nM: TGI (K-562 leukemia)
inactive: GI50 (786-0 renal) 1680 nM | GI50 (A498 renal) 1540 nM | GI50 (A549 NSCLC) 1600 nM | GI50 (ACHN renal) 1760 nM | GI50 (BT-549 breast) 1630 nM | GI50 (CAKI-1 renal) 1520 nM | GI50 (CCRF-CEM leukemia) 2120 nM | GI50 (COLO 205 colon) 1490 nM | GI50 (DU-145 prostate) 1720 nM | GI50 (EKVX NSCLC) 1600 nM | GI50 (HCC-2998 colon) 793 nM | GI50 (HCT-116 colon) 1690 nM | GI50 (HCT-15 colon) 1530 nM | GI50 (HOP-92 NSCLC) 1480 nM | GI50 (HS 578T breast) 1800 nM | GI50 (HT29 colon) 1630 nM | GI50 (IGROV1 ovarian) 1500 nM | GI50 (K-562 leukemia) 1800 nM | GI50 (KM12 colon) 1600 nM | GI50 (LOX IMVI melanoma) 1370 nM | GI50 (M14 melanoma) 1690 nM | GI50 (MALME-3M melanoma) 1460 nM | GI50 (MCF7 breast) 1600 nM | GI50 (MDA-MB-231 breast) 1770 nM | GI50 (MDA-MB-435) 1780 nM | GI50 (NCI-H23 lung) 1770 nM | GI50 (NCI-H460 lung) 1710 nM | GI50 (NCI/ADR-RES ovarian) 1740 nM | GI50 (OVCAR-3 ovarian) 1480 nM | GI50 (OVCAR-4 ovarian) 1530 nM | GI50 (OVCAR-5 ovarian) 1710 nM | GI50 (OVCAR-8 ovarian) 2130 nM | GI50 (PC-3 prostate) 1700 nM | GI50 (RXF 393 renal) 1620 nM | GI50 (SF-268 CNS) 1610 nM | GI50 (SF-295 CNS) 1780 nM | GI50 (SF-539 CNS) 1730 nM | GI50 (SK-MEL-2 melanoma) 1920 nM | GI50 (SK-MEL-28 melanoma) 1820 nM | GI50 (SK-OV-3 ovarian) 1720 nM | GI50 (SN12C renal) 1640 nM | GI50 (SNB-19 CNS) 1750 nM | GI50 (SNB-75 CNS) 1530 nM | GI50 (SW-620 colon) 1560 nM | GI50 (TK-10 renal) 1780 nM | GI50 (U251 CNS) 1640 nM | GI50 (UACC-257 melanoma) 1870 nM | GI50 (UACC-62 melanoma) 1780 nM | GI50 (UO-31 renal) 1340 nM
3100 nM: TGI (EKVX NSCLC)
2900 nM: TGI (A498 renal)
4610 nM: TGI (OVCAR-8 ovarian)
3330 nM: TGI (NCI-H460 lung)
3250 nM: TGI (SF-268 CNS) | TGI (SK-MEL-28 melanoma)
3370 nM: TGI (NCI/ADR-RES ovarian)
3320 nM: TGI (NCI-H23 lung) | TGI (U251 CNS)
3130 nM: TGI (SF-539 CNS)
2700 nM: TGI (LOX IMVI melanoma)
3070 nM: TGI (BT-549 breast) | TGI (RXF 393 renal)
2140 nM: TGI (HCC-2998 colon)
3210 nM: TGI (HCT-116 colon) | TGI (HOP-92 NSCLC) | TGI (SF-295 CNS)
3140 nM: TGI (ACHN renal)

CS[C@@]1(C(=O)Nc2ccc3[nH]nc(-c4ccc(OC(C)C)nc4)c3c2)CCN(CC(=O)N2CC=C(c3ccc(-c4ncn(C)n4)cc3)CC2)C1
1110 nM: TGI (SK-MEL-2 melanoma)
active: GI50 (A498 renal) 176 nM | GI50 (COLO 205 colon) 17.8 nM | GI50 (HCC-2998 colon) 131 nM | GI50 (HCT-116 colon) 161 nM | GI50 (HL-60(TB) leukemia) 55.1 nM | GI50 (HOP-62 NSCLC) 378 nM | GI50 (HOP-92 NSCLC) 228 nM | GI50 (HT29 colon) 36.8 nM | GI50 (IGROV1 ovarian) 271 nM | GI50 (LOX IMVI melanoma) 204 nM | GI50 (M14 melanoma) 32 nM | GI50 (MALME-3M melanoma) 15.5 nM | GI50 (MDA-MB-231 breast) 380 nM | GI50 (MDA-MB-435) 355 nM | GI50 (NCI-H23 lung) 160 nM | GI50 (OVCAR-5 ovarian) 131 nM | GI50 (SK-MEL-2 melanoma) 57.1 nM | GI50 (SK-MEL-28 melanoma) 29.3 nM | GI50 (SW-620 colon) 201 nM | GI50 (TK-10 renal) 237 nM
8280 nM: TGI (LOX IMVI melanoma)
inactive: GI50 (786-0 renal) 5270 nM | GI50 (A549 NSCLC) 1600 nM | GI50 (ACHN renal) 37800 nM | GI50 (BT-549 breast) 9430 nM | GI50 (CAKI-1 renal) > 100000 nM | GI50 (CCRF-CEM leukemia) 12500 nM | GI50 (DU-145 prostate) > 100000 nM | GI50 (HCT-15 colon) 2270 nM | GI50 (K-562 leukemia) 2240 nM | GI50 (KM12 colon) 929 nM | GI50 (MCF7 breast) 13900 nM | GI50 (MOLT-4 leukemia) 5260 nM | GI50 (NCI-H226 lung) > 100000 nM | GI50 (NCI-H460 lung) > 100000 nM | GI50 (NCI-H522 lung) > 51200 nM | GI50 (NCI/ADR-RES ovarian) 12600 nM | GI50 (OVCAR-3 ovarian) > 100000 nM | GI50 (OVCAR-8 ovarian) 9310 nM | GI50 (PC-3 prostate) 6560 nM | GI50 (RPMI-8226 leukemia) 2210 nM | GI50 (SF-268 CNS) > 100000 nM | GI50 (SF-295 CNS) > 27300 nM | GI50 (SF-539 CNS) > 100000 nM | GI50 (SK-MEL-5 melanoma) 1030 nM | GI50 (SK-OV-3 ovarian) > 100000 nM | GI50 (SN12C renal) > 100000 nM | GI50 (SNB-19 CNS) > 100000 nM | GI50 (SNB-75 CNS) > 100000 nM | GI50 (SR leukemia) 4350 nM | GI50 (T-47D breast) 27900 nM | GI50 (U251 CNS) 1650 nM | GI50 (UO-31 renal) 1010 nM
105 nM: TGI (MALME-3M melanoma)
1660 nM: TGI (HOP-92 NSCLC)
441 nM: TGI (SK-MEL-28 melanoma)
> 89900 nM: TGI (SK-MEL-5 melanoma)
> 100000 nM: TGI (786-0 renal) | TGI (A549 NSCLC) | TGI (ACHN renal) | TGI (BT-549 breast) | TGI (CAKI-1 renal) | TGI (CCRF-CEM leukemia) | TGI (COLO 205 colon) | TGI (DU-145 prostate) | TGI (HCC-2998 colon) | TGI (HCT-116 colon) | TGI (HCT-15 colon) | TGI (HL-60(TB) leukemia) | TGI (HOP-62 NSCLC) | TGI (HT29 colon) | TGI (IGROV1 ovarian) | TGI (K-562 leukemia) | TGI (KM12 colon) | TGI (MCF7 breast) | TGI (MDA-MB-231 breast) | TGI (MDA-MB-435) | TGI (MOLT-4 leukemia) | TGI (NCI-H226 lung) | TGI (NCI-H23 lung) | TGI (NCI-H460 lung) | TGI (NCI-H522 lung) | TGI (NCI/ADR-RES ovarian) | TGI (OVCAR-3 ovarian) | TGI (OVCAR-5 ovarian) | TGI (OVCAR-8 ovarian) | TGI (PC-3 prostate) | TGI (RPMI-8226 leukemia) | TGI (SF-268 CNS) | TGI (SF-295 CNS) | TGI (SF-539 CNS) | TGI (SK-OV-3 ovarian) | TGI (SN12C renal) | TGI (SNB-19 CNS) | TGI (SNB-75 CNS) | TGI (SW-620 colon) | TGI (T-47D breast) | TGI (TK-10 renal) | TGI (U251 CNS) | TGI (UO-31 renal)
63600 nM: TGI (SR leukemia)
641 nM: TGI (A498 renal)
